Results from article PMC5034290, “Predicted structure of a Minus-C OBP from Batocera horsfieldi (Hope) suggests an intermediate structure in evolution of OBPs” (Scientific Reports, 2016).

Experiments:
[1] = molecular target: T1, BhorOBPm2 (Batocera horsfieldi, UniProt D4P5A8); experiment: 1-NPN fluorescence competition binding; conditions: pH 7.4, 30 mM Tris-HCl, room temperature, 2 μM protein, 2 μM 1-NPN
T1 construct: antennal cDNA, ORF 435 bp, 145 residues printed incl; 21-residue signal peptide; reverse primer encodes ETFIFF-stop

[2] = tested on: CquiOBP1; conditions: cited from earlier work
[3] = tested on: BhorOBPm2; experiment: Fluorescence competition-binding assay with 1-NPN probe, wild-type BhorOBPm2; design: species or system Batocera horsfieldi; conditions: BhorOBPm2, discussion
Experimental: Fluorescence competition-binding assays were performed to determine the binding affinity of the BhorOBPm2 protein for various ligands using 1-NPN as a fluorescent probe. […] The fluorescence of 1-NPN was excited at 337 nm, and emission was recorded at between 350 nm and 600 nm using a RF-5301PC fluorescence spectrophotometer (Shimadzu, Kyoto, Japan), a 1-cm light path, and a quartz cuvette. The competitive binding of ligands was measured using 1-NPN (2 μM) as the fluorescent probe with a stoichiometry of 1:1 (protein:ligand), with the final concentration of each ligand added to the sample ranging from 0 μM to 20 μM. […] The binding data were obtained from three independent measurements. […] Binding affinities (Ki) of the OBPs for each ligand were determined based on the IC50 value (the initial fluorescence level of the competitor concentration reduced by half) using the equation: Ki = [IC50]/(1 + [1-NPN]/K1-NPN), where [1-NPN] is the free concentration of 1-NPN, and K1-NPN is the dissociation constant of the complex BhorOBPm2/1-NPN.

[4] = molecular target: T1, BhorOBPm2; experiment: direct 1-NPN fluorescence titration, Scatchard plot; format: binding; conditions: 30 mM Tris-HCl, room temperature, 2 μM protein, 0-28 μM 1-NPN; fluorescent probe
[5] = molecular target: T1, BhorOBPm2; experiment: 1-NPN fluorescence competition binding; conditions: pH 7.4, 30 mM Tris-HCl, room temperature, 2 μM protein, 2 μM 1-NPN; reciprocal Ki, not Ki itself

T1 sequence (D4P5A8 entry or part of it): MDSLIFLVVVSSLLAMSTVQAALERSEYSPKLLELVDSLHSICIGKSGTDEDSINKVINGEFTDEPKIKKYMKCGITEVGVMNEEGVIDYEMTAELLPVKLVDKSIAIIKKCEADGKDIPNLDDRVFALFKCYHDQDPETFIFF

Row | Compound | 1/Ki*1000 [1] | other results
1 | CCCCCCCC=O [octanal] | 54.09 1/Ki(uM)*1000 | 
2 | CCCCCCCC=O [Octanal, octanal] |  | binding affinity (in words) [2]: high binding affinities
3 | CCCCCCCCCCCC(C)=O [2-tridecanone] | 353.05 1/Ki(uM)*1000 | 
4 | CCCCCCCCCCCCCCCCCCCCCCCCCCC [heptacosane] | 45.56 1/Ki(uM)*1000 | binding affinity (in words) [3]: low binding affinities
5 | c1ccc(Nc2cccc3ccccc23)cc1 [N-phenyl-1-naphthylamine] |  | Kd [4]: The dissociation constants (Kd) of the OBPs for 1-NPN were calculated from Scatchard plots
6 | CCCCCCCCCCCCCCCCCCCCCCCCC [pentacosane] | 1.89 1/Ki(uM)*1000 | binding affinity (in words) [3]: low binding affinities
7 | farnesene |  | binding affinity (in words) [3]: highest binding affinity
8 | CCCCCCCCCC=O [decanal] | 102.21 1/Ki(uM)*1000 | binding affinity (in words) [2]: high binding affinities
9 | CCCCCCCCCCCCC [tridecane] | 262.09 1/Ki(uM)*1000 | 
10 | CCCCCCCCCCCCCC [tetradecane] | 94.91 1/Ki(uM)*1000 | 
11 | CCCCCCCCC=O [nonanal] | 50.40 1/Ki(uM)*1000 | binding affinity (in words) [2]: high binding affinities
12 | Farnesene |  | 1/Ki(μM) × 1000 [5]: 1159.11 1000/μM (reciprocal of Ki in μM, times 1000)
